Measurements as given in US8273773B2 (priority 2008, dated 2012).
Where two headings read alike, the source gives them in different places.

How the values were obtained:
[1] = target: T1, HCV polymerase (NS5B570n-Con1) (Hepatitis C virus genotype 1b, UniProt Q9WMX2); experiment: biochemical; parameters: species or system HCV Con1 strain;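 also: recombinant His-tagged enzyme from E. coli, radiolabeled nucleotide incorporation into acid-insoluble RNA read by scintillation after filtration, no-enzyme background subtracted, activity relative to positive control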
T1 construct: contains a 21 amino acid deletion at the C-terminus relative to the full-length HCV polymerase; 6-histidine (N); made in house; host or cells: E. coli strain BL21(DE) pLysS (pET17b)

[2] = IC50 HCV NS5B RNA Polymerase Assay, values without asterisk, 20 nM NS5B570n-Con1 enzyme, 20 nM cIRES RNA template
[3] = IC50 HCV NS5B RNA Polymerase Assay (values with asterisk), values with asterisk: cIRES RNA template, 3 nM NS5B570n-Con1

| Structure (SMILES) | IC50 [1, 2] | melting point | also measured |
| --- | --- | --- | --- |
| Cc1cc(-c2cc(F)c[nH]c2=O)cc(C(C)(C)C)c1 [I-53] | 1930 nM | 244 to 246 °C | – |
| Cc1cc(-c2ccc[nH]c2=O)cc(C(C)(C)C)c1 [I-3] | 525 nM | 224 to 225 °C | – |
| CC(C)(C)c1ccc(O)c(-c2ccc[nH]c2=O)c1 [I-2] | 3580 nM | 211 to 212 °C | – |
| CCc1cc(C(C)(C)C)cc(-c2ccc[nH]c2=O)c1O [I-14] | 332 nM | 224.2 to 226.2 °C | – |
| COc1c(NC(=O)c2ccccc2)cc(-c2ccc[nH]c2=O)cc1C(C)(C)C [I-58] | 34 nM | 212 to 216 °C | – |
| COc1c(CC(CN2CCC(F)(F)C2)c2ccc(NS(C)(=O)=O)cc2)cc(-c2ccc[nH]c2=O)cc1C(C)(C)C (stereo not shown) [I-195] | 18 nM | 133 to 135 °C | – |
| COc1c(NC(=O)c2ccc(NS(C)(=O)=O)c(F)c2)cc(-c2ccc[nH]c2=O)cc1C(C)(C)C [I-121] | 7 nM | 270 to 272 °C | – |
| COc1c(CC(CN2CCOCC2)c2ccc(NS(C)(=O)=O)cc2)cc(-c2ccc[nH]c2=O)cc1C(C)(C)C (stereo not shown) [I-193] | 12 nM | 138 to 140 °C | – |
| COc1c(C(=O)c2cc(F)cc(F)c2)cc(-c2ccc[nH]c2=O)cc1C(C)(C)C [I-52] | 143 nM | 197.1 to 198.6 °C | – |
| CCC(C)(C)c1cc(Br)c(O)c(-c2ccc[nH]c2=O)c1 [I-9] | 3100 nM | 257.2 to 257.7 °C | – |
| COc1c(C)cc(-c2ccc[nH]c2=O)cc1C(C)(C)C [I-29] | 521 nM | 176 to 178 °C | – |
| CC(C)(C)c1cc(CCc2ccc(NS(C)(=O)=O)cc2)c(C(N)=O)c(-c2ccc[nH]c2=O)c1 [I-122, 4-tert-Butyl-2-[2-(4-methanesulfonylamino-phenyl)-ethyl]-6-(2-oxo-1,2-dihydro-pyridin-3-yl)-benzamide] | 3 nM | 170 to 172 °C | – |
| COc1c(NC(=O)c2ccc(N)c(F)c2)cc(-c2ccc[nH]c2=O)cc1C(C)(C)C [I-120] | 3 nM | 283 to 285 °C | – |
| COc1c(CCc2ccc(N)nn2)cc(-c2ccc[nH]c2=O)cc1C(C)(C)C [I-128] | 5 nM | 142 to 144 °C | – |
| COc1c(/C=C/c2ccc(NS(C)(=O)=O)cn2)cc(-c2ccc[nH]c2=O)cc1C(C)(C)C | – | 293 to 295 °C | – |
| CC(C)(C)c1cc(CCc2ccc(F)cc2)c(O)c(-c2ccc[nH]c2=O)c1 [I-20] | 378 nM | 178 to 179 °C | – |
| CS(=O)(=O)Nc1ccc(/C=C/c2cc(-c3ccc[nH]c3=O)cc(C3(CO)CC3)c2)cc1 | – | 148 to 150 °C | – |
| COc1c(/C=C/c2ccc(NS(C)(=O)=O)cc2)cc(-c2cc(F)cn(COP(=O)(O)O)c2=O)cc1C(C)(C)C | – | 175 to 178 °C | – |
| COc1c(/C=C/c2ccc(NS(=O)(=O)CCN3CCCC3)cc2)cc(-c2cc(F)c[nH]c2=O)cc1C(C)(C)C [I-232, 2-Pyrrolidin-1-yl-ethanesulfonic acid (4-{(E)-2-[3-tert-butyl-5-(5-fluoro-2-oxo-1,2-dihydro-pyridin-3-yl)-2-methoxy-phenyl]-vinyl}-phenyl)-amide] | – | – | IC50 [1, 3]: 1 nM |
| COc1c(NC(=O)c2ccc(N)nc2)cc(-c2ccc[nH]c2=O)cc1C(C)(C)C [I-247, 6-Amino-N-[3-tert-butyl-2-methoxy-5-(2-oxo-1,2-dihydro-pyridin-3-yl)-phenyl]-nicotinamide] | 22 nM | – | – |
| COc1c(C(=O)Nc2cccc(CO)c2C)cc(-c2ccc[nH]c2=O)cc1C(C)(C)C [I-78] | 1130 nM | – | – |
| COc1c(NC(=O)c2ccc(N)c(C)c2)cc(-c2ccc[nH]c2=O)cc1C(C)(C)C [I-278] | 14 nM | – | – |
| COc1c(NC(=O)c2ccc(NS(C)(=O)=O)cc2)cc(-c2ccc(C)[nH]c2=O)cc1C(C)(C)C [I-286] | 19 nM | – | – |

| Structure (SMILES) | IC50 [1, 2] | melting point | also measured |
| --- | --- | --- | --- |
| COCCc1cc(NS(C)(=O)=O)ccc1/C=C/c1cc(-c2cc(F)c[nH]c2=O)cc(C(C)(C)C)c1OC [I-227, N-[4-{(E)-2-[3-tert-Butyl-5-(5-fluoro-2-oxo-1,2-dihydro-pyridin-3-yl)-2-methoxy-phenyl]-vinyl}-3-(2-methoxy-ethyl)-phenyl]-methanesulfonamide] | – | – | IC50 [1, 3]: 1 nM |
| COc1c(C(C)(C)C)cc(-c2ccc[nH]c2=O)c(O)c1CCc1ccc(NS(C)(=O)=O)cc1 [I-218, N-(4-{2-[3-tert-Butyl-6-hydroxy-2-methoxy-5-(2-oxo-1,2-dihydro-pyridin-3-yl)-phenyl]-ethyl}-phenyl)-methanesulfonamide] | 8 nM | – | – |
| COc1c(/C=C/c2ccccc2C#N)cc(-c2ccc[nH]c2=O)cc1C(C)(C)C [I-238, 2-{(E)-2-[3-tert-Butyl-2-methoxy-5-(2-oxo-1,2-dihydro-pyridin-3-yl)-phenyl]-vinyl}-benzonitrile] | – | – | IC50 [1, 3]: 2 nM |
| COc1c(CC(C)(CO)c2ccc(NS(C)(=O)=O)cc2)cc(-c2ccc[nH]c2=O)cc1C(C)(C)C (stereo not shown) [I-198, N-(4-{2-[3-tert-Butyl-2-methoxy-5-(2-oxo-1,2-dihydro-pyridin-3-yl)-phenyl]-1-hydroxymethyl-1-methyl-ethyl}-phenyl)-methanesulfonamide] | 19 nM | – | – |
| COc1c(C(=O)Nc2ccccc2C)cc(-c2ccc[nH]c2=O)cc1C(C)(C)C [I-79] | 1170 nM | – | – |
| O=C(O)c1ccc([N+](=O)[O-])c(Cl)c1 [I-131] | – | – | IC50 ([1]; values without asterisk, 20 nM NS5B570n-Con1 enzyme, 20 nM cIRES RNA template, read-out: IC50 HCV NS5B RNA Polymerase Assay): 3 nM |
| Cc1cc(-c2ccc[nH]c2=O)cc(C2(C)CCCC2)c1 [I-27] | – | – | IC50 [1, 3]: 5380 nM |
| COCCCS(=O)(=O)Nc1ccc(/C=C/c2cc(-c3cc(F)c[nH]c3=O)cc(C(C)(C)C)c2OC)cc1 [I-156] | 6 nM | – | – |
| COc1c(/C=C/c2ccc(NS(C)(=O)=O)cc2)cc(-c2ccc(C(C)O)[nH]c2=O)cc1C(C)(C)C (stereo not shown) [I-223, N-[4-((E)-2-{3-tert-Butyl-5-[6-(1-hydroxy-ethyl)-2-oxo-1,2-dihydro-pyridin-3-yl]-2-methoxy-phenyl}-vinyl)-phenyl]-methanesulfonamide] | – | – | IC50 [1, 3]: 1 nM |
| COc1c(/C=C/c2ccc(NS(=O)(=O)CCCN3CCCC3)cc2)cc(-c2ccc(C)[nH]c2=O)cc1C(C)(C)C [I-235, 3-Pyrrolidin-1-yl-propane-1-sulfonic acid (4-{(E)-2-[3-tert-butyl-2-methoxy-5-(6-methyl-2-oxo-1,2-dihydro-pyridin-3-yl)-phenyl]-vinyl}-phenyl)-amide] | – | – | IC50 [1, 3]: 12 nM |
| COCc1cc(NS(C)(=O)=O)ccc1/C=C/c1cc(-c2ccc(OC)[nH]c2=O)cc(C(C)(C)C)c1OC [I-209, N-(4-{(E)-2-[3-tert-Butyl-2-methoxy-5-(6-methoxy-2-oxo-1,2-dihydro-pyridin-3-yl)-phenyl]-vinyl}-3-methoxymethyl-phenyl)-methanesulfonamide] | – | – | IC50 [1, 3]: 1 nM |
| COc1c(/C=C/c2ccccc2C(F)(F)F)cc(-c2ccc[nH]c2=O)cc1C(C)(C)C [I-239, 3-{3-tert-Butyl-4-methoxy-5-[(E)-2-(2-trifluoromethyl-phenyl)-vinyl]-phenyl}-1H-pyridin-2-one] | – | – | IC50 [1, 3]: 8 nM |
| COc1c(CCc2ccc(NS(C)(=O)=O)cc2)cc(-c2ccc[nH]c2=O)c(F)c1C(C)(C)C [I-287, N-(4-{2-[3-tert-Butyl-4-fluoro-2-methoxy-5-(2-oxo-1,2-dihydro-pyridin-3-yl)-phenyl]-ethyl}-phenyl)-methanesulfonamide] | 9 nM | – | – |
| COc1ccc(-c2cc(/C=C/c3ccc(NS(C)(=O)=O)cc3CO)c(OC)c(C(C)(C)C)c2)c(=O)[nH]1 [I-210, N-(4-{(E)-2-[3-tert-Butyl-2-methoxy-5-(6-methoxy-2-oxo-1,2-dihydro-pyridin-3-yl)-phenyl]-vinyl}-3-hydroxymethyl-phenyl)-methanesulfonamide] | – | – | IC50 [1, 3]: 1 nM |
| COc1c(/C=C/c2ccc(NS(C)(=O)=O)cc2COCCC(C)(C)O)cc(-c2cc(F)c[nH]c2=O)cc1C(C)(C)C [I-219, N-[4-{(E)-2-[3-tert-Butyl-5-(5-fluoro-2-oxo-1,2-dihydro-pyridin-3-yl)-2-methoxy-phenyl]-vinyl}-3-(3-hydroxy-3-methyl-butoxymethyl)-phenyl]-methanesulfonamide] | – | – | IC50 [1, 3]: 4 nM |
| CC(C)(C)c1cc(CCc2ccc(NS(C)(=O)=O)nc2)c(C#N)c(-c2ccc[nH]c2=O)c1 [I-212, N-(5-{2-[5-tert-Butyl-2-cyano-3-(2-oxo-1,2-dihydro-pyridin-3-yl)-phenyl]-ethyl}-pyridin-2-yl)-methanesulfonamide] | 9 nM | – | – |
| COc1c(NC(=O)c2ccc(NS(C)(=O)=O)cc2OCCN(C)C)cc(-c2ccc[nH]c2=O)cc1C(C)(C)C [I-285] | 149 nM | – | – |
| COc1c(C(=O)Nc2ccc(OCC(N)=O)cc2)cc(-c2ccc[nH]c2=O)cc1C(C)(C)C [I-113, 3-tert-Butyl-N-(4-carbamoylmethoxy-phenyl)-2-methoxy-5-(2-oxo-1,2-dihydro-pyridin-3-yl)-benzamide] | 133 nM | – | – |
| COc1c(C(=O)NCCCN2CCCC2=O)cc(-c2ccc[nH]c2=O)cc1C(C)(C)C [I-44] | 1200 nM | – | – |
| CS(=O)(=O)Nc1ccc(/C=C/c2cc(-c3ccc[nH]c3=O)cc(C3(C(F)F)CC3)c2)cc1 [I-275, N-(4-{(E)-2-[3-(1-Difluoromethyl-cyclopropyl)-5-(2-oxo-1,2-dihydro-pyridin-3-yl)-phenyl]-vinyl}-phenyl)-methanesulfonamide] | – | – | IC50 [1, 3]: 1 nM |
| COC(=O)c1cc(NS(C)(=O)=O)ccc1/C=C/c1cc(-c2cc(F)c[nH]c2=O)cc(C(C)(C)C)c1OC [I-186] | – | – | IC50 [1, 3]: 4 nM |
| COc1c(CC(CO)c2ccc(NS(C)(=O)=O)cc2)cc(-c2ccc[nH]c2=O)cc1C(C)(C)C (stereo not shown) [I-176] | – | – | IC50 ([1]; read-out: IC50 HCV NS5B RNA Polymerase Assay, values without asterisk, 20 nM NS5B570n-Con1 enzyme, 20 nM cIRES RNA template): 6 nM |
| COc1c(/C=C/c2ccc(NS(C)(=O)=O)cc2)cc(-c2cc(F)cn(COC(=O)[C@@H](N)C(C)C)c2=O)cc1C(C)(C)C | – | 188 to 190 °C | – |
